Data reported in ChEMBL document CHEMBL1201861, “Genomics of Drug Sensitity in Cancer screening data, Wellcome Trust Sanger Institute”.

Tests used:
Type in all cases: functional, cell-based
NCI-H2081 = experiment: cells; details: Homo sapiens;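 note: growth inhibition of human NCI-H2081 cells, read out with a cell viability assay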
Description: SANGER: Inhibition of human NCI-H2081 cell growth in a cell viability assay.

RPMI-6666 = experiment: cells; details: Homo sapiens
Description: SANGER: Inhibition of human RPMI-6666 cell growth in a cell viability assay.

NCI-H345 = experiment: cells; details: Homo sapiens;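 note: growth inhibition of NCI-H345 cells measured with a cell viability assay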
Description: SANGER: Inhibition of human NCI-H345 cell growth in a cell viability assay.

MDA-MB-134-VI = experiment: cells; details: Homo sapiens
Description: SANGER: Inhibition of human MDA-MB-134-VI cell growth in a cell viability assay.

JIYOYE = experiment: cells; details: Homo sapiens
Description: SANGER: Inhibition of human JiyoyeP-2003 cell growth in a cell viability assay.

NCI-H1694 = experiment: cells; details: Homo sapiens;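 note: cell viability assay measuring inhibition of growth in human NCI-H1694 cells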
Description: SANGER: Inhibition of human NCI-H1694 cell growth in a cell viability assay.

EVSA-T = experiment: cells; details: Homo sapiens;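 note: growth inhibition of EVSA-T cells, read out with a cell viability assay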
Description: SANGER: Inhibition of human EVSA-T cell growth in a cell viability assay.

TALL-1 = experiment: cells; details: Homo sapiens;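 note: growth inhibition of cultured human TALL-1 cells, read out by a cell viability assay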
Description: SANGER: Inhibition of human TALL-1 cell growth in a cell viability assay.

NCI-H1882 = experiment: cells; details: Homo sapiens;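 note: growth inhibition of the cell line, determined with a viability assay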
Description: SANGER: Inhibition of human NCI-H1882 cell growth in a cell viability assay.

RL = experiment: cells; details: Homo sapiens
Description: SANGER: Inhibition of human RL cell growth in a cell viability assay.

NCCIT = experiment: SANGER: Inhibition of human NCCIT cell growth in a cell viability assay.
CPC-N = experiment: cells; details: Homo sapiens;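 note: growth inhibition of CPC-N cells, with a cell viability assay as the readout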
Description: SANGER: Inhibition of human CPC-N cell growth in a cell viability assay.

MRK-nu-1 = experiment: cells; details: Homo sapiens;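 note: cell viability assay measuring growth suppression of human MRK-nu-1 cells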
Description: SANGER: Inhibition of human MRK-nu-1 cell growth in a cell viability assay.

NB14 = experiment: cells; details: Homo sapiens;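 note: growth inhibition of NB14 cells measured with a cell viability assay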
Description: SANGER: Inhibition of human NB14 cell growth in a cell viability assay.

DU-145 = experiment: cells; details: Homo sapiens
Description: SANGER: Inhibition of human DU-145 cell growth in a cell viability assay.

NCI-H1793 = experiment: cells; details: Homo sapiens;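 note: cell growth inhibition, read out by a cell viability assay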
Description: SANGER: Inhibition of human NCI-H1793 cell growth in a cell viability assay.

NCI-H1792 = experiment: cells; details: Homo sapiens;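 note: growth inhibition of human NCI-H1792 cells, read out as cell viability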
Description: SANGER: Inhibition of human NCI-H1792 cell growth in a cell viability assay.

GCT = experiment: cells; details: Homo sapiens;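 note: GCT cell line proliferation inhibition, read out with a cell viability assay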
Description: SANGER: Inhibition of human GCT cell growth in a cell viability assay.

HCC1954 = experiment: cells; details: Homo sapiens;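 note: growth inhibition of human HCC1954 cells, read out with a cell viability assay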
Description: SANGER: Inhibition of human HCC1954 cell growth in a cell viability assay.

HT-3 = experiment: cells; details: Homo sapiens;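 note: growth inhibition measured with a cell viability readout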
Description: SANGER: Inhibition of human HT-3 cell growth in a cell viability assay.

SAOS-2 = experiment: cells; details: Homo sapiens;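 note: growth inhibition of human Saos-2 cells determined by a cell viability assay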
Description: SANGER: Inhibition of human Saos-2 cell growth in a cell viability assay.

A204 = experiment: cells; details: Homo sapiens;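 note: growth inhibition of human A204 cells, read out with a cell viability assay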
Description: SANGER: Inhibition of human A204 cell growth in a cell viability assay.

KOSC-2 = experiment: cells; details: Homo sapiens;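 note: growth inhibition of KOSC-2 cells, read out by a cell viability assay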
Description: SANGER: Inhibition of human KOSC-2 cell growth in a cell viability assay.

HTC-C3 = experiment: cells; details: Homo sapiens;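 note: inhibition of cell growth, read out with a cell viability assay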
Description: SANGER: Inhibition of human HTC-C3 cell growth in a cell viability assay.

G-361 = experiment: cells; details: Homo sapiens
SCC-9 = experiment: cells; details: Homo sapiens;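 note: Read-out is a cell viability assay, with values giving inhibition of cell growth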
Description: SANGER: Inhibition of human SCC-9 cell growth in a cell viability assay.

HOS = experiment: cells; details: Homo sapiens;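 note: growth inhibition of human HOS cells, read out with a cell viability assay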
Description: SANGER: Inhibition of human HOS cell growth in a cell viability assay.

AU565 = experiment: cells; details: Homo sapiens;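 note: cell viability assay measuring growth inhibition of human AU565 cells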
Description: SANGER: Inhibition of human AU565 cell growth in a cell viability assay.

ESS-1 = experiment: cells; details: Homo sapiens;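 note: growth inhibition of human ESS-1 cells, read out by a cell viability assay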
Description: SANGER: Inhibition of human ESS-1 cell growth in a cell viability assay.

NCI-H28 = experiment: cells; details: Homo sapiens;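 note: growth inhibition of human NCI-H28 cells, read out as cell viability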
Description: SANGER: Inhibition of human NCI-H28 cell growth in a cell viability assay.

SNU-449 = experiment: cells; details: Homo sapiens
Description: SANGER: Inhibition of human SNU-449 cell growth in a cell viability assay.

HT-1376 = experiment: cells; details: Homo sapiens
Description: SANGER: Inhibition of human HT-1376 cell growth in a cell viability assay.

CWR22R = experiment: cells; details: Homo sapiens, 22Rv1;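 note: growth inhibition of 22Rv1 cells, read out with a cell viability assay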
Description: SANGER: Inhibition of human 22RV1 cell growth in a cell viability assay.

23132-87 = experiment: cells; details: Homo sapiens
Description: SANGER: Inhibition of human 23132-87 cell growth in a cell viability assay.

SW626 = experiment: cells; details: Homo sapiens;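 note: growth inhibition of SW626 cells, measured with a cell viability assay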
Description: SANGER: Inhibition of human SW626 cell growth in a cell viability assay.

HGC-27 = experiment: cells; details: Homo sapiens;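 note: growth inhibition of human HGC-27 cells, read out in a cell viability assay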
Description: SANGER: Inhibition of human HGC-27 cell growth in a cell viability assay.

HT-29 = experiment: cells; details: Homo sapiens;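 note: growth inhibition of human HT-29 cells, read out by a cell viability assay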
Description: SANGER: Inhibition of human HT-29 cell growth in a cell viability assay.

ASPC1 = experiment: cells; details: Homo sapiens;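 note: growth inhibition of AsPC-1 cells, read out with a cell viability assay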
Description: SANGER: Inhibition of human AsPC-1 cell growth in a cell viability assay.

RO82-W-1 = experiment: cells; details: Homo sapiens;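 note: growth inhibition of human RO82-W-1 cells, measured with a cell viability assay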
Description: SANGER: Inhibition of human RO82-W-1 cell growth in a cell viability assay.

U-118-MG = experiment: cells; details: Homo sapiens
Description: SANGER: Inhibition of human U-118-MG cell growth in a cell viability assay.

CAL-51 = experiment: cells; details: Homo sapiens;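 note: human CAL-51 cell line, growth inhibition read out via a cell viability assay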
Description: SANGER: Inhibition of human CAL-51 cell growth in a cell viability assay.

HSC-2 = experiment: cells; details: Homo sapiens;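 note: growth inhibition of human HSC-2 cells, read out by a cell viability assay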
Description: SANGER: Inhibition of human HSC-2 cell growth in a cell viability assay.

SK-N-AS = experiment: cells; details: Homo sapiens;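 note: growth inhibition of human SK-N-AS cells, measured with a cell viability assay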
Description: SANGER: Inhibition of human SK-N-AS cell growth in a cell viability assay.

IGROV-1 = experiment: cells; details: Homo sapiens;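 note: reduction of IGROV-1 cell growth, read out with a viability assay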
Description: SANGER: Inhibition of human IGROV-1 cell growth in a cell viability assay.

CaR-1 = experiment: cells; details: Homo sapiens;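 note: growth inhibition of human CaR-1 cancer cells, read out with a cell viability assay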
Description: SANGER: Inhibition of human CaR-1 cell growth in a cell viability assay.

SN12C = experiment: cells; details: Homo sapiens;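 note: growth inhibition of human SN12C cells, measured by a cell viability assay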
Description: SANGER: Inhibition of human SN12C cell growth in a cell viability assay.

HLE = experiment: cells; details: Homo sapiens;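 note: growth inhibition of human HLE cells, read out by a cell viability assay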
Description: SANGER: Inhibition of human HLE cell growth in a cell viability assay.

HuP-T3 = experiment: cells; details: Homo sapiens;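 note: HuP-T3 cell growth inhibition, read out with a cell viability assay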
Description: SANGER: Inhibition of human HuP-T3 cell growth in a cell viability assay.

KYSE-450 = experiment: cells; details: Homo sapiens;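 note: cell growth inhibition measured by a viability assay in human KYSE-450 cells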
Description: SANGER: Inhibition of human KYSE-450 cell growth in a cell viability assay.

CAL-62 = experiment: cells; details: Homo sapiens;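 note: growth inhibition of CAL-62 cells, read out with a cell viability assay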
Description: SANGER: Inhibition of human CAL-62 cell growth in a cell viability assay.

CAL-85-1 = experiment: cells; details: Homo sapiens;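 note: growth inhibition of human CAL-85-1 cells, read out with a cell viability assay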
Description: SANGER: Inhibition of human CAL-85-1 cell growth in a cell viability assay.

HCC70 = experiment: cells; details: Homo sapiens;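 note: cell viability assay measuring how strongly the compound suppresses proliferation of HCC70 cells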
Description: SANGER: Inhibition of human HCC70 cell growth in a cell viability assay.

SW48 = experiment: cells; details: Homo sapiens;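 note: growth inhibition of SW48 cells, read out with a cell viability assay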
Description: SANGER: Inhibition of human SW48 cell growth in a cell viability assay.

UO-31 = experiment: cells; details: Homo sapiens
Description: SANGER: Inhibition of human U031 cell growth in a cell viability assay.

NCI-H1563 = experiment: cells; details: Homo sapiens;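 note: growth inhibition of human NCI-H1563 cells, read out with a cell viability assay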
Description: SANGER: Inhibition of human NCI-H1563 cell growth in a cell viability assay.

MDA-MB-157 = experiment: cells; details: Homo sapiens
Description: SANGER: Inhibition of human MDA-MB-157 cell growth in a cell viability assay.

SK-MEL-24 = experiment: cells; details: Homo sapiens;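 note: growth inhibition read out by a cell viability assay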
Description: SANGER: Inhibition of human SK-MEL-24 cell growth in a cell viability assay.

FTC-133 = experiment: cells; details: Homo sapiens
A673 = experiment: cells; details: Homo sapiens;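 note: growth inhibition of human A673 cells, read out through a cell viability assay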
Description: SANGER: Inhibition of human A673 cell growth in a cell viability assay.

LN-405 = experiment: cells; details: Homo sapiens
Description: SANGER: Inhibition of human LN-405 cell growth in a cell viability assay.

LU-99A = experiment: cells; details: Homo sapiens;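 note: growth inhibition of LU-99A cells, read out with a cell viability assay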
Description: SANGER: Inhibition of human LU-99A cell growth in a cell viability assay.

MIA PaCa-2 = experiment: cells; details: Homo sapiens;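 note: growth inhibition of MIA PaCa-2 cells, read out with a cell viability assay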
Description: SANGER: Inhibition of human MIA-PaCa-2 cell growth in a cell viability assay.

A-375 = experiment: cells; details: Homo sapiens;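 note: growth inhibition of A375 cells, read out with a cell viability assay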
Description: SANGER: Inhibition of human A375 cell growth in a cell viability assay.

In the case of `Cc1n[nH]c2ccc(-c3cncc(OC[C@@H](N)Cc4c[nH]c5ccccc45)c3)cc12` [A-443654], the IC50 (NCI-H2081) is reported as over 1020 nM, the IC50 (RPMI-6666) is reported as 152 nM and the IC50 (NCI-H345) is reported as 750 nM. It also gave an IC50 (MDA-MB-134-VI) of 489 nM, an IC50 (JIYOYE) of 188 nM and an IC50 (NCI-H1694) of 509 nM. For the same compound, the IC50 (EVSA-T) was 220 nM, the IC50 (TALL-1) was 242 nM and the IC50 (NCI-H1882) was 428 nM. It also gave an IC50 (RL) of over 1020 nM, an IC50 (NCCIT) of 234 nM and an IC50 (CPC-N) of 304 nM. For the same compound, the IC50 (MRK-nu-1) was 104 nM and the IC50 (NB14) was over 1020 nM.

Work on `Cc1nc(Nc2ncc(C(=O)Nc3c(C)cccc3Cl)s2)cc(N2CCN(CCO)CC2)n1` [DASATINIB] yielded an IC50 (NCI-H2081) of over 1280 nM, an IC50 (RPMI-6666) of over 1280 nM and an IC50 (NCI-H345) of over 1280 nM. It also gave an IC50 (MDA-MB-134-VI) of over 1280 nM, an IC50 (JIYOYE) of over 1280 nM and an IC50 (NCI-H1694) of over 1280 nM. The IC50 (EVSA-T) was over 1280 nM, the IC50 (TALL-1) was over 1280 nM and the IC50 (NCI-H1882) was over 1280 nM. The IC50 (RL) was over 1280 nM, the IC50 (NCCIT) was over 1280 nM and the IC50 (CPC-N) was over 1280 nM. It also gave an IC50 (MRK-nu-1) of over 1280 nM and an IC50 (NB14) of over 1280 nM.

In the case of `CCn1c(-c2nonc2N)nc2cnc(Oc3cccc(NC(=O)c4ccc(OCCN5CCOCC5)cc4)c3)cc21` [GSK-269962A], the IC50 (NCI-H2081) is reported as over 2500 nM, the IC50 (RPMI-6666) is reported as over 2500 nM and the IC50 (NCI-H345) is reported as over 2500 nM. For the same compound, the IC50 (MDA-MB-134-VI) was over 2500 nM, the IC50 (JIYOYE) was over 2500 nM and the IC50 (NCI-H1694) was over 2500 nM. The IC50 (EVSA-T) was over 2500 nM, the IC50 (TALL-1) was over 2500 nM and the IC50 (NCI-H1882) was over 2500 nM. It also gave an IC50 (RL) of over 2500 nM, an IC50 (NCCIT) of over 2500 nM and an IC50 (CPC-N) of over 2500 nM. The IC50 (MRK-nu-1) was 576 nM and the IC50 (NB14) was over 2500 nM.

`CO[C@@]12[C@H](COC(N)=O)C3=C(C(=O)C(C)=C(N)C3=O)N1C[C@@H]1N[C@@H]12` [MITOMYCIN] showed an IC50 (DU-145) of under 62.5 nM, an IC50 (NCI-H1793) of 1810 nM and an IC50 (NCI-H1792) of 697 nM. It also gave an IC50 (NCI-H2081) of 741 nM, an IC50 (GCT) of 4600 nM and an IC50 (HCC1954) of 2280 nM. It also gave an IC50 (HT-3) of under 62.5 nM, an IC50 (SAOS-2) of 1410 nM and an IC50 (A204) of 84.2 nM. For the same compound, the IC50 (KOSC-2) was 1530 nM, the IC50 (HTC-C3) was 5790 nM and the IC50 (G-361) was 124 nM. For the same compound, the IC50 (SCC-9) was 3790 nM, the IC50 (HOS) was 107 nM and the IC50 (RPMI-6666) was 220 nM. For the same compound, the IC50 (AU565) was 501 nM, the IC50 (NCI-H345) was 4730 nM and the IC50 (MDA-MB-134-VI) was 2160 nM. For the same compound, the IC50 (ESS-1) was under 62.5 nM, the IC50 (NCI-H28) was 2440 nM and the IC50 (SNU-449) was 3360 nM. The IC50 (HT-1376) was 967 nM, the IC50 (CWR22R) was 144 nM and the IC50 (23132-87) was 30.5 nM. For the same compound, the IC50 (SW626) was 286 nM, the IC50 (HGC-27) was 49.3 nM and the IC50 (HT-29) was 36 nM. The IC50 (ASPC1) was 2900 nM, the IC50 (RO82-W-1) was 13300 nM and the IC50 (U-118-MG) was 3140 nM. It also gave an IC50 (CAL-51) of 30.9 nM, an IC50 (HSC-2) of 83.4 nM and an IC50 (SK-N-AS) of 1790 nM. The IC50 (IGROV-1) was 106 nM, the IC50 (CaR-1) was 469 nM and the IC50 (JIYOYE) was 630 nM. For the same compound, the IC50 (SN12C) was 3460 nM, the IC50 (HLE) was 498 nM and the IC50 (NCI-H1694) was 415 nM. The IC50 (EVSA-T) was 1570 nM, the IC50 (HuP-T3) was 711 nM and the IC50 (KYSE-450) was 563 nM. It also gave an IC50 (TALL-1) of 2400 nM, an IC50 (NCI-H1882) of 257 nM and an IC50 (RL) of 5440 nM. It also gave an IC50 (CAL-62) of 242 nM, an IC50 (CAL-85-1) of 65.9 nM and an IC50 (HCC70) of 694 nM. For the same compound, the IC50 (NCCIT) was 1010 nM, the IC50 (CPC-N) was 381 nM and the IC50 (SW48) was 193 nM. It also gave an IC50 (UO-31) of 366 nM, an IC50 (NCI-H1563) of 1430 nM and an IC50 (MDA-MB-157) of 2190 nM. The IC50 (SK-MEL-24) was 1370 nM, the IC50 (FTC-133) was 517 nM and the IC50 (A673) was 790 nM. It also gave an IC50 (LN-405) of 2150 nM, an IC50 (LU-99A) of 224 nM and an IC50 (MRK-nu-1) of 110 nM. For the same compound, the IC50 (MIA PaCa-2) was 275 nM and the IC50 (A-375) was 139 nM.

`Cc1[nH]c(/C=C2\C(=O)Nc3ccc(S(=O)(=O)Cc4c(Cl)cccc4Cl)cc32)c(C)c1C(=O)N1CCC[C@@H]1CN1CCCC1` [PHA-665752] gave an IC50 (NCI-H2081) of over 2000 nM, an IC50 (RPMI-6666) of over 2000 nM and an IC50 (NCI-H345) of over 2000 nM. It also gave an IC50 (MDA-MB-134-VI) of over 2000 nM, an IC50 (JIYOYE) of over 2000 nM and an IC50 (NCI-H1694) of over 2000 nM. For the same compound, the IC50 (EVSA-T) was over 2000 nM, the IC50 (TALL-1) was over 2000 nM and the IC50 (NCI-H1882) was over 2000 nM. It also gave an IC50 (RL) of over 2000 nM, an IC50 (NCCIT) of over 2000 nM and an IC50 (CPC-N) of over 2000 nM. The IC50 (MRK-nu-1) was over 2000 nM and the IC50 (NB14) was over 2000 nM.
